# Measured values taken from PMC2873968, “Novel protein kinase D inhibitors cause potent arrest in prostate cancer cell growth and motility” (BMC Chemical Biology, 2010).
# How the values were obtained:
# PC3 cells = test: Cell proliferation assay (cell counts, trypan blue); format: cell-based; conditions: 10 μM, cell counts over six days
# Text: Cells were allowed to attach overnight.
# PDGFRα = PDGFRα (Homo sapiens, UniProt P16234); test: Kinase profiling, single-dose in vitro kinase assay (Caliper Life Sciences); conditions: read-out: Average % Inhibition PDGFRα
# IGF1R = IGF1R (Homo sapiens, UniProt P08069); test: as above; conditions: read-out: Average % Inhibition IGF1R
# PIM2 = PIM2 (Homo sapiens, UniProt Q9P1W9); test: as above; conditions: read-out: Average % Inhibition PIM2
# AKT1 = AKT1 (Homo sapiens, UniProt P31749); test: as above; conditions: read-out: Average % Inhibition AKT1
# CAMK4 = CAMK4 (Homo sapiens, UniProt Q16566); test: as above; conditions: read-out: Average % Inhibition CAMK4
# PKCβI = biological target: T1, PKCβI (Homo sapiens, UniProt P05771); set-up: method as in PMID 18829454; conditions: previously reported; cited from earlier work
# T1 construct: purchased Cell Signaling Technology
# p70S6K = p70S6K (Homo sapiens, UniProt P23443); test: Kinase profiling, single-dose in vitro kinase assay (Caliper Life Sciences); conditions: read-out: Average % Inhibition p70S6K
# RSK1 = RSK1 (Homo sapiens, UniProt Q15418); test: as above; conditions: read-out: Average % Inhibition RSK1
# CHK2 = CHK2 (Homo sapiens, UniProt O96017); test: as above; conditions: read-out: Average % Inhibition CHK2
# BTK = BTK (Homo sapiens, UniProt Q06187); test: as above; conditions: read-out: Average % Inhibition BTK
# PKCη = PKCη (Homo sapiens, UniProt P24723); test: as above; conditions: read-out: Average % Inhibition PKCη
# c-Raf = c-Raf (Homo sapiens, UniProt P04049); test: as above; conditions: read-out: Average % Inhibition c-Raf
# PKA = PKA (Homo sapiens, UniProt P17612); test: as above; conditions: read-out: Average % Inhibition PKA
# ErbB4 = ErbB4 (Homo sapiens, UniProt Q15303); test: as above; conditions: read-out: Average % Inhibition ErbB4
# PKCγ = PKCγ (Homo sapiens, UniProt P05129); test: as above; conditions: read-out: Average % Inhibition PKCγ
# PAK2 = PAK2 (Homo sapiens, UniProt Q13177); test: as above; conditions: read-out: Average % Inhibition PAK2
# PLK1 = system: PLK1; set-up: method as in PMID 18829454; conditions: previously reported; cited from earlier work
# Ikkb = Ikkb (Homo sapiens, UniProt O14920); test: Kinase profiling, single-dose in vitro kinase assay (Caliper Life Sciences); conditions: read-out: Average % Inhibition Ikkb
# MET = MET (Homo sapiens, UniProt P08581); test: as above; conditions: read-out: Average % Inhibition MET
# IRAK4 = IRAK4 (Homo sapiens, UniProt Q9NWZ3); test: as above; conditions: read-out: Average % Inhibition IRAK4
# PKCζ = PKCζ (Homo sapiens, UniProt Q05513); test: as above; conditions: read-out: Average % Inhibition PKCζ
# PKCδ [1] = biological target: T2, PKCδ (Homo sapiens, UniProt Q05655); set-up: method as in PMID 18829454; conditions: previously reported; cited from earlier work
# T2 construct: purchased Enzo Life Sciences
# SYK = SYK (Homo sapiens, UniProt P43405); test: Kinase profiling, single-dose in vitro kinase assay (Caliper Life Sciences); conditions: read-out: Average % Inhibition SYK
# FLT3 = FLT3 (Homo sapiens, UniProt P36888); test: as above; conditions: read-out: Average % Inhibition FLT3
# AMPK = test: as above; conditions: 10 μM
# PKCδ [2] = biological target: T2, PKCδ; test: In vitro radiometric PKC kinase assay; format: biochemical
# Experimental: The PKC in vitro kinase assays were performed as described previously.
# To determine whether the novel analogs retained this specificity, we tested the compounds against their ability to inhibit PKCα, -βI, -δ, and CAMKIIα in in vitro radiometric kinase activity assays.
# Inhibition of PKCα (A), PKCβI (B), PKCδ (C), or CAMKIIα (D) by each of the 5 analogs was determined at 100 nM, 1 μM, and 10 μM concentrations. […] Data are the mean ± S.E.M. of three independent experiments. Statistical significance was determined using the unpaired t-test. ns, not statistically significant; *, p < 0.05; **, p < 0.01; ***, p < 0.001.
# T2 sequence (Q05655 whole entry): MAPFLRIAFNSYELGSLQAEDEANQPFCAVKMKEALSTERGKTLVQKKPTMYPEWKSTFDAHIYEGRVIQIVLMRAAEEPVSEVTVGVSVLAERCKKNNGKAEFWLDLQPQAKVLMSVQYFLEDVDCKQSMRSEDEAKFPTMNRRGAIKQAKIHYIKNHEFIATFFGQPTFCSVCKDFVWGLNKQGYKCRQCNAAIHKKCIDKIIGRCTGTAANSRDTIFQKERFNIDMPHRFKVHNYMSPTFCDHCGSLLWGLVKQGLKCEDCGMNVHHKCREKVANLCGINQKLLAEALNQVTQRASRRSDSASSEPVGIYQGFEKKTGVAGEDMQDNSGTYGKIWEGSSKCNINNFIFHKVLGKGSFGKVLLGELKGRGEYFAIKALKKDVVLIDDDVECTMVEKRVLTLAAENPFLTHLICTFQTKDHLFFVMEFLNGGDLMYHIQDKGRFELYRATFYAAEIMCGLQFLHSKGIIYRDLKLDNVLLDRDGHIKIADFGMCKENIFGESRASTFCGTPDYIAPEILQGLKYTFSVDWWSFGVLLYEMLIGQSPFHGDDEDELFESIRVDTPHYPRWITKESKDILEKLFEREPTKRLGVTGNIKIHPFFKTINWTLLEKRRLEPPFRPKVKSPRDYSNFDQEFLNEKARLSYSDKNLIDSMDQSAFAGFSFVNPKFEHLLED
# T1 sequence (P05771 whole entry): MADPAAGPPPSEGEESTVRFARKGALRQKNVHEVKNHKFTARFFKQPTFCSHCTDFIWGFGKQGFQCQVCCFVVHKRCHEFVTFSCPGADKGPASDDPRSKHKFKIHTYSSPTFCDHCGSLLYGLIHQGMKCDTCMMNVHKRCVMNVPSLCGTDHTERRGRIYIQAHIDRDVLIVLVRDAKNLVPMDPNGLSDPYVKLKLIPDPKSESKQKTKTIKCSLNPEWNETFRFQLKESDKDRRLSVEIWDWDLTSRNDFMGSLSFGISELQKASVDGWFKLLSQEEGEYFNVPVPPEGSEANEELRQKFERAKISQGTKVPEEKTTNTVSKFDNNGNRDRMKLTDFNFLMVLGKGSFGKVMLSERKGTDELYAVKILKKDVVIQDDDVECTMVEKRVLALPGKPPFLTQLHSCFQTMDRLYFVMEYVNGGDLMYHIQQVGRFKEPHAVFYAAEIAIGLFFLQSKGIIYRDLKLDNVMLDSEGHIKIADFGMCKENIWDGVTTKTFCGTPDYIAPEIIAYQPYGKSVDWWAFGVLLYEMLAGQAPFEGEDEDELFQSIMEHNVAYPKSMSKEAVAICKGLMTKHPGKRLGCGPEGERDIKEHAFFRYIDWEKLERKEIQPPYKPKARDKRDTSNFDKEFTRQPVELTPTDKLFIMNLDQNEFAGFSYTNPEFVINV
# PDGFRα, sequence (P16234 24-1089): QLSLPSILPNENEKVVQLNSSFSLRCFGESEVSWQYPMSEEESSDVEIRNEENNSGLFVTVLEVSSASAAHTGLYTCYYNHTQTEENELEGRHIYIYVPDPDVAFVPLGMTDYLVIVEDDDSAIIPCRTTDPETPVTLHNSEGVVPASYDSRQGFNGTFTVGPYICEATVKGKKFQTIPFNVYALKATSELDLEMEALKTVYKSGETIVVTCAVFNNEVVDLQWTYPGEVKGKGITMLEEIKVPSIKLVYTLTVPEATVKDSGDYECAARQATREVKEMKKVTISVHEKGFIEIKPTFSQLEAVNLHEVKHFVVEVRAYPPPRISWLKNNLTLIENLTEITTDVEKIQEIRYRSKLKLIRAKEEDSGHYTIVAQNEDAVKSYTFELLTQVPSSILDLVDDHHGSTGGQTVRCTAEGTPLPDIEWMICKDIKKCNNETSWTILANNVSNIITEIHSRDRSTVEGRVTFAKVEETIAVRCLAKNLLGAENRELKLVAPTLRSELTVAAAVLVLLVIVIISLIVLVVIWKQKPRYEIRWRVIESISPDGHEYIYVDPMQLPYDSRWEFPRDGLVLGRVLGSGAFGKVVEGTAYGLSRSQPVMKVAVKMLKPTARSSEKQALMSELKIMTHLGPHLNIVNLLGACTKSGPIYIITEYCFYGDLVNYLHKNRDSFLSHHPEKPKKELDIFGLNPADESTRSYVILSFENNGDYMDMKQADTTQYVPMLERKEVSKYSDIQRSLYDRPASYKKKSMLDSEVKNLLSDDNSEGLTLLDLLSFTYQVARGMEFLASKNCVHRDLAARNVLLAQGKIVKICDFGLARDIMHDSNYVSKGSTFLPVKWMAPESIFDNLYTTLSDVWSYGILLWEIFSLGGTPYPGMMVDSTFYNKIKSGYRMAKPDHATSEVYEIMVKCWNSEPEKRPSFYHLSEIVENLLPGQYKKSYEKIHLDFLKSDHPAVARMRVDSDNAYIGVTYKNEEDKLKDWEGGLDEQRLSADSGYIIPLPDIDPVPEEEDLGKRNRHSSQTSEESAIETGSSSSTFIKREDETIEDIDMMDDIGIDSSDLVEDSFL
# Ikkb, sequence (O14920 whole entry): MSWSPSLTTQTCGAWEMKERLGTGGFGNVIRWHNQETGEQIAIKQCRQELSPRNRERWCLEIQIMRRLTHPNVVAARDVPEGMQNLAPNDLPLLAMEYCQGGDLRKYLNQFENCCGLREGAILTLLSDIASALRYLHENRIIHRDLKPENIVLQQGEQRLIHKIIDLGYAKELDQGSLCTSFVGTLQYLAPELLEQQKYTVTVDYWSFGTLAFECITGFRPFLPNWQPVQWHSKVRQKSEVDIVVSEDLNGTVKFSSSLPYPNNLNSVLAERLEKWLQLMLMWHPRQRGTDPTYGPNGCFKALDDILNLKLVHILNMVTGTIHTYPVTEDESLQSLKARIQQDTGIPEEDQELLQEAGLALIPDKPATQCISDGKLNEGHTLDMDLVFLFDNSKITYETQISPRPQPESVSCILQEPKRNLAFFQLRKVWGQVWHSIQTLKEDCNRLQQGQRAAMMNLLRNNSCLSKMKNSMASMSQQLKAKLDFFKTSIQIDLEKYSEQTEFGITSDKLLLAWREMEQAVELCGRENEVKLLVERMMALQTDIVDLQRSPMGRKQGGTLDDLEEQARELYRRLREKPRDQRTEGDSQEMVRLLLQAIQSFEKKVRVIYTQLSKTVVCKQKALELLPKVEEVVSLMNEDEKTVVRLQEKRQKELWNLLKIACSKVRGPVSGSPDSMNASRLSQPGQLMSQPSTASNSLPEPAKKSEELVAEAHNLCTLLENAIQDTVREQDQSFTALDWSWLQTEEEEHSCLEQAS
# MET, sequence (P08581 25-1390): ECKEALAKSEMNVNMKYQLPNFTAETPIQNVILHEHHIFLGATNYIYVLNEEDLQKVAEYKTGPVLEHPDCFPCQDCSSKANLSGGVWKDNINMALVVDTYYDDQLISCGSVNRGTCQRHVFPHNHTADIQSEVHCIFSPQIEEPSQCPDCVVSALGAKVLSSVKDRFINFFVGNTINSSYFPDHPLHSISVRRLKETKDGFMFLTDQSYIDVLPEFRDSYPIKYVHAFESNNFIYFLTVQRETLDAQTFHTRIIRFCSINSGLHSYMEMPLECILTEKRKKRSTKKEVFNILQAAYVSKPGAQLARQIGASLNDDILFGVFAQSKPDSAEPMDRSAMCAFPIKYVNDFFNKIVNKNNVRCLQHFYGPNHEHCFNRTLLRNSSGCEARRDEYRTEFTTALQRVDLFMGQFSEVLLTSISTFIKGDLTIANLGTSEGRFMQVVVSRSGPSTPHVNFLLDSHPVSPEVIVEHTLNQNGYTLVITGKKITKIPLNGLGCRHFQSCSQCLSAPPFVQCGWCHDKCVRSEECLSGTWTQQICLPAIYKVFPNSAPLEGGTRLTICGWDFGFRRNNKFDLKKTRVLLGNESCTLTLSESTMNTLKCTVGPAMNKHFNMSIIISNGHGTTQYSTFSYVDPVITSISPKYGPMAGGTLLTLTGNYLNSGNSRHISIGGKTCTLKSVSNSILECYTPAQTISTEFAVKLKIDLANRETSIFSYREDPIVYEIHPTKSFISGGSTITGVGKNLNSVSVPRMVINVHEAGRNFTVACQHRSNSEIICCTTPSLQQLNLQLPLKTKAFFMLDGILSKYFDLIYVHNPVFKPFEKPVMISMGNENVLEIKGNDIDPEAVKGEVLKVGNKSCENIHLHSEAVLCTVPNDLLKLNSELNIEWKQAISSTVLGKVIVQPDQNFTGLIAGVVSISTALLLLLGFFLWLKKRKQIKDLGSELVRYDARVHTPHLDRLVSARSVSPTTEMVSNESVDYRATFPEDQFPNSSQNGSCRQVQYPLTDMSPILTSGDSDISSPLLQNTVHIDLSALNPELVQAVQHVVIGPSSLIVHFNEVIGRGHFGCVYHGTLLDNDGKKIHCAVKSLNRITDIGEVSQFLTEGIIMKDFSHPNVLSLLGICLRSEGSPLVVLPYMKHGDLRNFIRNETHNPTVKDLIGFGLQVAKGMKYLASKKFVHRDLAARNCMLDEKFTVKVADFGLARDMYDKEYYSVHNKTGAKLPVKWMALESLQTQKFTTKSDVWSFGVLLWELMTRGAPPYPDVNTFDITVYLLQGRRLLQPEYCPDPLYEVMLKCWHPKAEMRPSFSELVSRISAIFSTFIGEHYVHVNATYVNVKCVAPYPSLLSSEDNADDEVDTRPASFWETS
# CHK2, sequence (O96017 whole entry): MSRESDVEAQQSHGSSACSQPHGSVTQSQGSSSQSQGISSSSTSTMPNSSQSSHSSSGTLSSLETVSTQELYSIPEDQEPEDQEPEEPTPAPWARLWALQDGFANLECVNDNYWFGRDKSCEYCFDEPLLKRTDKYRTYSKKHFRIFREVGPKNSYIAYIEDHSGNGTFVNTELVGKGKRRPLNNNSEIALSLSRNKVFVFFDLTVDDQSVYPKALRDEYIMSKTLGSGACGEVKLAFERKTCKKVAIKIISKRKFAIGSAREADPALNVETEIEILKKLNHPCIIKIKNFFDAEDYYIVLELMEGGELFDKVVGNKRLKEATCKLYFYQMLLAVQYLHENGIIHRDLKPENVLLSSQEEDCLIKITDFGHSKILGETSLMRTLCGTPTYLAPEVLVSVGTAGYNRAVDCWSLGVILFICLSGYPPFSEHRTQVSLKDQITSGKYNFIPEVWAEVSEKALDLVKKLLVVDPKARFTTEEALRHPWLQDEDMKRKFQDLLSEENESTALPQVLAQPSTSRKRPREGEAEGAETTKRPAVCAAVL
smiles,measurement,setting,value
O=C1NCCSc2c1sc1ccc(O)cc21 [kb-NB142-70],effect on cell proliferation,PC3 cells,most potent among the compounds
"O=C1NCCCc2c1oc1ccc(O)cc21 [CID755673, 7-Hydroxy-2,3,4,5-tetrahydro-[1]benzoxolo[2,3-c]azepin-1-one]",inhibition at 10 µM,PDGFRα,5%
same,inhibition at 10 µM,IGF1R,-2%
same,inhibition at 10 µM,PIM2,6%
same,inhibition at 10 µM,AKT1,3%
same,inhibition at 10 µM,CAMK4,17%
same,inhibition of PKCβI,PKCβI,did not inhibit
same,inhibition at 10 µM,p70S6K,44%
same,inhibition at 10 µM,RSK1,29%
same,inhibition at 10 µM,CHK2,4%
same,inhibition at 10 µM,BTK,-3%
same,inhibition at 10 µM,PKCη,40%
same,inhibition at 10 µM,c-Raf,2%
same,inhibition at 10 µM,PKA,6%
same,inhibition at 10 µM,ErbB4,1%
same,inhibition at 10 µM,PKCγ,30%
same,inhibition at 10 µM,PAK2,3%
same,inhibition of PLK1,PLK1,did not inhibit
same,inhibition at 10 µM,Ikkb,49%
same,inhibition at 10 µM,MET,18%
same,inhibition at 10 µM,IRAK4,0%
same,inhibition at 10 µM,PKCζ,-4%
same,inhibition of PKCδ,PKCδ [1],did not inhibit
same,inhibition at 10 µM,SYK,-8%
same,inhibition at 10 µM,FLT3,14%
same,Average % Inhibition AMPK,AMPK,35%
O=C1NCCSc2c1sc1ccc(O)c(I)c21 [kb-NB165-31],inhibition of PKCδ (in words),PKCδ [2],significant inhibitory activity
same,inhibition at 10 µM,"PKCδ [2]; 10 μM, read-out: inhibitory activity toward PKCδ",~50%
